In PMC7667655, “Targeted Covalent Inhibition of Plasmodium FK506 Binding Protein 35” (ACS Medicinal Chemistry Letters, 2020):
pIC50: −log10 of the molar value. Where two headings read alike, the source gives them in different places. One block for each compound: values may come before it.

Experiments:
FKBP35 = target: T1, FKBP35 (Plasmodium falciparum, UniProt Q8I4V8); experiment: Mass spec of FKBP35 incubated with D44 analogs; assay type: biochemical
T1 construct: FKBP35 Q5 -A128; 6His-SUMO (N, cleaved yes); made in house; host or cells: E. coli BL21 DE3
Description: Prior to DSC experiments 400 µL of the reaction mixture was saved f or mass spectrometry analysis. For intact mass analysis, 100 µL of the reaction mixture was diluted to 0.05 mg/mL and injected onto a ZORBAX StableBond 300 C8 HPLC column [2.1 x 100 mm, 3.5 µm (Agilent)] on an Agilent HPLC binary pump system. Initial m obile phase conditions were 15% acetonitrile/85% water, both containing 0.1% formic acid. Protein was desalted for 2 minutes and eluted from the column with a gradient of 15% to 75% acetonitrile over 10 min. Intact mass measurement was performed on a Q Exa ctive mass spectrometer with an ESI source (Thermo Scientific). Source parameters: spray voltage, 3500 V; capillary temperature, 340°C; sheath gas, 35; auxiliary gas, 5; (gas flows in arbitrary units of the ESI source). MS detection was performed using a Full MS scan acquisition method, scanning over the range 800 -2100 m/z. BioPharma Finder v 3.0 (Thermo Fisher Scientific) was used for data acquisition and analysis. DSC and mass spectrometry experiments were performed in parallel.
For chymotrypsin digestion , 20 µL of the reaction mixture was added to 20 µL of fresh denaturing solution (0.1 M urea, 0.1 M NaCl, adjusted to 10 ml with 50 mM Tris Buffer pH 8.0). Then 10 µL of 10 mM TCEP was added to the mixture, which was then incubated at 37 °C for 60 minutes. To prevent modification of free thiol groups in FKBP proteins during digestion, 4 µL of 50 mM iodoacetamide (IAA, Sigma No. A3221) was added followed by incubation at room temperature in the dark for 30 minutes. After the incubation, the reaction mixture w as brought up to 200 µL with 140 µL of 10 mM Trizma pH 7.5. The peptide fragments were generated by adding chymotrypsin at a molar ratio of 1 chymotrypsin : 100 FKBP protein and incubated overnight at 37 °C. The reaction was quenched by adding 10 µL of form ic acid (~5% of total volume) followed by a few seconds of a vortex pulse.
Samples were analyzed using a Thermo Fisher Scientific Vanquish UHPLC connected to a Q Exactive HF mass spectrometer with a HESI source. Source parameters were as follows: spray voltage, 3500 V; capillary temperature, 300 °C; sheath gas flow, 45; auxiliary gas flow; 10; sweep gas flow, 1; (gas flows in arbitrary units of the HESI source). Digested samples were injected onto an ACQUITY UPLC BEH C18 Column [130Å, 1.7 µm, 2.1 mm X 50 mm (Waters)] held at 45 °C and desalted for 30 s with 5% acetonitrile/95% water, both containing 0.1% formic acid. Peptides were separated using a 5% to 65% acetonitrile gradient over 6.5 min. MS detection was performed using a Full MS/ddMS2 (Top 5) acquisi tion method, scanning over the range 300 -1800 m/z. […]
DSC thermograms were recorded in MicroCal DSC from Malvern with an autosampler. […]

[1] = Cell viability assay (CellTiter-Glo); assay type: cell-based; conditions: human
Description: (§1) In 96-well round-bottom plates, sorbitol -synchronized cultures of ring-stage NF54 P. falciparum parasites were established in triplicate and treated with varying concentrations of the inhibitors (25-0.0038 μM) serially diluted in complete medium. Parasite proliferation rates were analyzed after 72 h using the Renilla-Glo Luciferase Assay, and luminescence was measured using the GloMax® Discover Microplate Reader. EC 50 values were obtained from corrected dose-response curves using GraphPad Prism (version 5; GraphPad Software). Data represent the mean % luminescence relative to 5% DMSO-treated (vehicle, 100% growth) and 100 nM chloroquine-treated (no growth) controls.
(§2) In black, clear-bottom 96-well plates (No. 3904 Corning Life Sciences), HEK293T cells were plated at 2x10^5 cells/mL in DMEM high glucose, pyruvate media (ThermoFisher Scientific, cat. 11995073) supplemented with 10% FBS and 1% pen -strep (100 μL final volume). Cells were incubated overnight at 37°C, 5% CO2. Using a Tecan D300e digital dispenser, cells were dosed in triplicate […]
(§3) concentration, 100 mM stock in DMSO) and Carfilzomib (10 µM to 4.6 nM final concentration, 10 mM stock in DMSO) normalizing DMSO to 0.25%. Cells were then incubated at 37 °C, 5% CO2 for 72 hours. Following incubation, cells were treated with 70 µL CellTiter-Glo® Luminescent Cell Viability Assay Reagent (Promega, cat. G7570) and incubated in the dark at room temperature for 30 minutes. Plates were read using an EnVision Multimode Plate Reader (PerkinElmer). Cell viability data was normalized to DMSO controls and analyzed in GraphPad Prism 8 by fitting the data to “[Inhibitor] vs. normalized response – variable slope” model to obtain the curves.
Each compound was prepared in duplicate at 1 µM final concentration (0.2% DMSO) in human or mouse plasma (Aldrich). […]
After quenching, samples were centrifuged to pellet precipitated partic ulates and an aliquot of supernatant was diluted 1:1 with water. The resulting solution was analyzed by UPLC -MS/MS with compounds detected by MRM detection on a triple quadrupole mass spectrometer. […]

[2] = system: NF54 P. falciparum parasites; experiment: P. falciparum strain NF54 growth-inhibition assay; assay type: cell-based; conditions: Plasmodium falciparum; luciferase reporter NF54 line, 72 h
Description: Figure 6 P. falciparum strain NF54 growth-inhibition assay. […] Proliferation was measured by luminescence after a complete life-cycle and normalized to DMSO (100%) and chloroquine (100 nM, 0%). (B) Structural differences between synthetic ligands and compound IC50s (μM).
Substrate and Extracellular NanoLuc® Inhibitor (Promega, cat. N2160) were diluted at 1:166 and 1:500, respectively, in Opti -MEM I Reduced Serum Media. 25 µL of this solution was added to each well and plate was read immediately using an EnVision Multimode Plate Reader (PerkinElmer). The BRET ratio was calculated using the following formula:
BRET ratio = acceptorsample – acceptorno tracer control donorsample donorno tracer control
NanoBRET Target Engagement Assay (384-well)
HEK293T cells stably expressing either nLuc-FKBP12 or nLuc-FKBP35 were plated at 0.2×10^6 cells/mL in white, clear -bottom 384-well plates (Sigma Aldrich) in Opti -MEM I Reduced Serum Media (ThermoFisher Scientific) using a Mutidrop Combi Reagent Dispenser (ThermoFisher Scientific). Cells were incubated overnight at 37 °C, 5% CO 2. Using a Tecan D300e, the Rap-Gly-BDP tracer was added to cells to 1 µM. Plates were shaken at 700 RPM on an orbital plate shaker and incubated at 37 °C, 5% CO 2 for 10 minutes. Test compounds were added at the indicated concentrations using a Tecan D300e. Plates were shaken at 700 RPM on an orbital plate shaker and incubated at 37 °C, 5% CO 2 for 2 hours. NanoBRET Nano -Glo Substrate and Extracellular NanoLuc® Inhibitor (Promega, cat. N2160) were diluted at 1:166 and 1:500, respectively, in Opti-MEM I Reduced Serum Media. 10 µL of this solution was added to each well and plate was read immediately using an EnVision Multimode Plate Reader (PerkinElmer). The BRET ratio was calculated using the above formula.
Parasite Culture and Inhibition
NF54 P. falciparum parasites constitutively expressing Renilla luciferase (RLuc) and Blasticidin-S deaminase under the PfHsp86 5’ and PfHRP2 3‘ regulatory sequences integrated in the cg6 chromosomal locus 4 were maintained continuous ly in media consisting of human erythrocytes at 2% haematocrit (O+) resuspended in RPMI 1640 (Gibco® 31800022) supplemented with 5% Albumax (Gibco® 11021045; complete medium) and 2.5 µg/mL of Blasticidin (RPI Corp B12150-0.1) in a gas mixture consisting of 5% CO2, 1% O2, and 94% N2 at 37 °C (Trager and Jensen 2005).
Parasitemia was determined every 48 h through microscopic examination of thin blood smears fixed in methanol, stained with 10% Giemsa solution, and sub-cultured to 0.5-1% parasitaemia.
Compound susceptibility assays
as §1, §2
concentration, 100 mM stock in DMSO) and Carfilzomib (10 µM to 4.6 nM final concentration, 10 mM stock in DMSO) normalizing DMSO to 0.25%. Cells were then incubated at 37 °C, 5% CO2 for 72 hours. Following incubation, cells were treated with 70 µL CellTiter-Glo® Luminescent Cell […]

[3] = Plasma stability assay, mouse; assay type: in vitro ADME; conditions: percent remaining, 1 µM, 37 °C, 5 hours
Description: as §1, §2, §3
(§4) Each compound was prepared in duplicate at 1 µM final concentration (0.2% DMSO) in human or mouse plasma (Aldrich). Samples were incubated at 37 °C for 5 hours with mixing at 350 rpm on an orbital shaker. Aliquots of each sample were taken at time zero and following 5 hours. Each sample was quenched by adding acetonitrile in a 3:1 ratio and further diluting with 50 µl of PBS.
(§5) After quenching, samples were centrifuged to pellet precipitated partic ulates and an aliquot of supernatant was diluted 1:1 with water. The resulting solution was analyzed by UPLC -MS/MS with compounds detected by MRM detection on a triple quadrupole mass spectrometer. The ratio of compound peak areas at 0 and 5 hours were use d to calculate the percent remaining.

[4] = target: T2, FBD35 (PfFKBP35 binding domain) (Plasmodium falciparum, UniProt Q8I4V8); experiment: Fluorescence polarization competition, FBD35
T2 construct: FKBP35 Q5 -A128; 6His-SUMO (N, cleaved yes); made in house; host or cells: E. coli BL21 DE3

[5] = Plasma stability assay, human; assay type: in vitro ADME; conditions: percent remaining, 1 µM, 37 °C, 5 hours
Description: as §1, §2, §3, §4, §5

[6] = target: T3, nLuc-tagged full length PfFKBP35 (Plasmodium falciparum, UniProt Q8I4V8); experiment: NanoBRET cellular target engagement, nLuc-FKBP35; assay type: cell-based
T3 construct: nanoluciferase-tagged (nLuc) full length PfFKBP35 or nLuc-tagged FKBP12; expressed in transfected cells

FKBP12 [7] = target: T4, FKBP12 (Homo sapiens, UniProt P62942); experiment: Fluorescence polarization competition, FKBP12; assay type: binding
T4 construct: 6His-SUMO (N, cleaved yes); made in house; host or cells: E. coli (identical protocol to FBD35, BL21 DE3)

[8] = target: T2, FBD35 (PfFKBP35 binding domain); experiment: Differential scanning calorimetry, FBD35; conditions: read-out: FBD35 ΔTM
nLuc-tagged FKBP12 = target: T5, nLuc-tagged FKBP12 (Homo sapiens, UniProt P62942); experiment: NanoBRET cellular target engagement, nLuc-FKBP12; assay type: cell-based
T5 construct: full length Plasmodium falciparum FKBP35 and human FKBP12 DNA were; expressed in transfected cells

FKBP12 [9] = target: T4, FKBP12; experiment: Differential scanning calorimetry, FKBP12; assay type: binding; conditions: compound 40 µM
[10] = system: Plasmodium cultured parasites; conditions: Figure 1; read-out: IC50 in blood-stage antiplasmodium assays; cited from earlier work

T1 sequence (Q8I4V8 5-128): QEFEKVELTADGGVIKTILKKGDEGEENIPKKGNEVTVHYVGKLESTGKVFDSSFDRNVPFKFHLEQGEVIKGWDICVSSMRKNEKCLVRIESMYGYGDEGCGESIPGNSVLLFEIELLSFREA
T2 sequence (Q8I4V8 5-128): as above
T4 sequence (P62942 whole entry): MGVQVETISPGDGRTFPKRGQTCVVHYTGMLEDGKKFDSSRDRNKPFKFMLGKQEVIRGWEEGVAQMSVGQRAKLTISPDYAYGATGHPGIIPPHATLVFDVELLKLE
T3 sequence (Q8I4V8 whole entry): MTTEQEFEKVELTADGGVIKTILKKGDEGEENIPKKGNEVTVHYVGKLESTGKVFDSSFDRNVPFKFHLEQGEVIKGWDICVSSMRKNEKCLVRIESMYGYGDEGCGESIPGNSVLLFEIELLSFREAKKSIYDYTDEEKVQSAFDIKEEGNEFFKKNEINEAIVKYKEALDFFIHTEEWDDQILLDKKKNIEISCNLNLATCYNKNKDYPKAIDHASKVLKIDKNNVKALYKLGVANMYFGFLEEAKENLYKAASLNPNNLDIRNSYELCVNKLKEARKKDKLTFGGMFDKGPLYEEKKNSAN
T5 sequence (P62942 whole entry): as the sequence (P62942 whole entry) above

% Abundance of modified FKBP35 (FKBP35; incubation temp 37 °C): 4.1%
% Abundance of modified FKBP35 (FKBP35; incubation temp RT): 11.5%
SMILES: C=CC(=O)NCc1ccccc1NC(=O)CSc1nc2cccnc2[nH]1 [D44a]

SMILES: CC(C)C[C@H](NC(=O)[C@H](CCc1ccccc1)NC(=O)CN1CCOCC1)C(=O)N[C@@H](Cc1ccccc1)C(=O)N[C@@H](CC(C)C)C(=O)[C@@]1(C)CO1 [carfilzomib]
IC50 at 72 h [1]: 15 nM

SMILES: CCC(=O)OCC(C)(C)C(=O)C(=O)N1CCCC[C@H]1C(=O)O[C@H](CCc1ccc(OC)c(OC)c1)c1ccccc1 [2d]
pIC50 [2]: 5.00
Plasma Stability (mouse) [3]: 0%
pIC50 [4]: 7.00
Plasma Stability (human) [5]: 1%
pIC50 [6]: 5.88
pIC50 (FKBP12 [7]): 7.37
ΔTm at 40 µM [8]: 3 °C
pIC50 (nLuc-tagged FKBP12): 6.34
ΔTm at 40 µM (FKBP12 [9]): 5.9 °C

SMILES: CC[C@H]1CN(Cc2ccccn2)C(=O)[C@@H]2CCC[C@H]1N2S(=O)(=O)c1cc(Cl)cc(Cl)c1 [[4.3.1]-ABS]
pIC50 [10]: 5.64

% Abundance of modified FKBP35 (FKBP35; incubation temp 37 °C): 37.0%
% Abundance of modified FKBP35 (FKBP35; incubation temp RT): 17.1%
SMILES: C=CC(=O)NCc1ccc(NC(=O)CSc2nc3cccnc3[nH]2)cc1 [D44c]

SMILES: CO[C@H]1C[C@@H]2CC[C@@H](C)[C@@](O)(O2)C(=O)C(=O)N2CCCC[C@H]2C(=O)O[C@H]([C@H](C)C[C@@H]2CC[C@@H](O)[C@H](OC)C2)CC(=O)[C@H](C)/C=C(\C)[C@@H](O)[C@@H](OC)C(=O)[C@H](C)C[C@H](C)/C=C/C=C/C=C/1C [Rapamycin, reference compound]
pIC50 [2]: 5.96
IC50 at 72 h ([1]; HEK293T cells, HEK293T, 72 hour treatment, read-out: IC50 cell viability): 63000 nM
